{"source": "patent US6156790A", "about": "“C-10 carbon-substituted artemisinin-like trioxane compounds having antimalarial, antiproliferative and antitumor activities” (priority 1997, dated 2000)", "key": {"[1]": {"test_system": "MDA-N", "assay": "cells", "assay_type": "cell-based", "details": "Homo sapiens, read-out: Log10 GI50 (converted)"}, "[2]": {"test_system": "IGROVI", "assay": "cells", "details": "60 cell"}, "[3]": {"test_system": "OVCAR-8", "assay": "NCI 60 cell line screen (SRB), ovarian cancer", "assay_type": "cell-based", "details": "Homo sapiens"}, "[4]": {"test_system": "U251", "assay": "cells", "assay_type": "cell-based", "details": "Homo sapiens"}, "[5]": {"test_system": "CCRF-CEM", "assay": "NCI 60 cell line screen (SRB), leukemia", "assay_type": "cell-based", "details": "Homo sapiens"}, "[6]": {"test_system": "M14", "assay": "NCI 60 cell line screen (SRB), melanoma", "details": "Homo sapiens, M14, read-out: Log10 GI50 (converted)"}, "[7]": {"test_system": "SNB-19", "assay": "cells", "assay_type": "cell-based", "details": "Homo sapiens, read-out: Log10 GI50 (converted)"}, "[8]": {"test_system": "ACHN", "assay": "cells", "details": "Homo sapiens"}, "[9]": {"test_system": "PC-3", "assay": "cells", "assay_type": "cell-based", "details": "Homo sapiens, PC-3"}, "[10]": {"test_system": "MCF7", "assay": "cells", "assay_type": "cell-based", "details": "Homo sapiens, MCF7; read-out: Log10 GI50 (converted)"}, "[11]": {"test_system": "SK-MEL-2", "assay": "cells", "assay_type": "cell-based", "details": "Homo sapiens"}, "[12]": {"test_system": "KM12", "assay": "cells", "assay_type": "cell-based", "details": "Homo sapiens, read-out: Log10 TGI (converted)"}, "[13]": {"test_system": "HOP-92", "assay": "NCI 60 cell line screen (SRB), non-small cell lung cancer", "assay_type": "cell-based", "details": "Homo sapiens, read-out: Log10 GI50 (converted)"}, "[14]": {"test_system": "RXF 393", "assay": "cells", "details": "Homo sapiens, RXF 393, read-out: Log10 GI50 (converted)"}, "[15]": {"test_system": "HCT-116", "assay": "cells", "assay_type": "cell-based", "details": "Homo sapiens"}, "[16]": {"test_system": "TK-10", "assay": "cells", "assay_type": "cell-based", "details": "Homo sapiens"}, "[17]": {"test_system": "60 cell line panel", "assay": "NCI 60 cell line screen, whole panel", "assay_type": "cell-based"}, "[18]": {"test_system": "UO-31", "assay": "NCI 60 cell line screen (SRB), renal cancer", "assay_type": "cell-based", "details": "Homo sapiens"}, "[19]": {"test_system": "SR", "assay": "cells", "assay_type": "cell-based", "details": "Homo sapiens"}, "[20]": {"test_system": "A498", "assay": "cells", "assay_type": "cell-based", "details": "Homo sapiens, read-out: Log10 GI50 (converted)"}, "[21]": {"test_system": "NCI-H226", "assay": "NCI 60 cell line screen (SRB), non-small cell lung cancer", "assay_type": "cell-based", "details": "Homo sapiens, read-out: Log10 GI50 (converted)"}, "[22]": {"test_system": "NCI-H460", "assay": "cells", "assay_type": "cell-based", "details": "Homo sapiens, NCI-H460"}, "[23]": {"test_system": "HOP-62", "assay": "cells", "assay_type": "cell-based", "details": "Homo sapiens, read-out: Log10 GI50 (converted)"}, "[24]": {"test_system": "HCT-15", "assay": "cells", "assay_type": "cell-based", "details": "Homo sapiens, HCT-15"}, "[25]": {"test_system": "T-47D", "assay": "cells", "assay_type": "cell-based", "details": "Homo sapiens, T47D, T-47D"}, "[26]": {"test_system": "A549/ATCC", "assay": "NCI 60 cell line screen (SRB), non-small cell lung cancer", "assay_type": "cell-based", "details": "Homo sapiens"}, "[27]": {"test_system": "MDA-MB231/ATCC", "assay": "cells", "assay_type": "cell-based", "details": "Homo sapiens, MDA-MB-231, read-out: Log10 TGI (converted)"}, "[28]": {"test_system": "SNB-75", "assay": "cells", "assay_type": "cell-based", "details": "Homo sapiens, read-out: Log10 GI50 (converted)"}, "[29]": {"test_system": "SW-620", "assay": "NCI 60 cell line screen (SRB), colon cancer", "assay_type": "cell-based", "details": "Homo sapiens"}, "[30]": {"test_system": "MOLT-4", "assay": "cells", "details": "Homo sapiens", "procedure": "The screening assay is performed on a 96-well microtitre plates.\nDose response curves, shown in the above mentioned Figures, are obtained by exposing various cancer cell lines to compounds having a known concentration ([log10 M]), as discussed in detail above, and then plotting the percentage growth of each cell line for each concentration. […] As discussed previously, the five drug dilutions routinely tested range from 10^-4 to 10^-9 molar."}, "[31]": {"test_system": "NCI-H23", "assay": "NCI 60 cell line screen (SRB), non-small cell lung cancer", "assay_type": "cell-based", "details": "Homo sapiens"}, "[32]": {"test_system": "EKVX", "assay": "NCI 60 cell line screen (SRB), non-small cell lung cancer", "assay_type": "cell-based", "details": "Homo sapiens"}, "[33]": {"test_system": "BT-549", "assay": "cells", "assay_type": "cell-based", "details": "Homo sapiens"}, "[34]": {"test_system": "HT29", "assay": "cells", "assay_type": "cell-based", "details": "Homo sapiens, HT-29, read-out: Log10 GI50 (converted)"}, "[35]": {"details": "read-out: Log10 GI50 (converted)"}, "[36]": {"details": "read-out: Log10 TGI (converted)"}, "[37]": {"details": "read-out: Log10 LC50 (converted)"}}, "note": "“Also recorded” adds a separate entry of the source. Where two headings read alike, the source gives them in different places."}
{"smiles": "C[C@H]1[C@@H](F)O[C@@H]2O[C@@]3(C)CC[C@H]4[C@H](C)CC[C@@H]1[C@@]24OO3", "note": "[Compound VI, 10β-Fluorodeoxoartemisinin]", "values": [{"measurement": "GI50", "setting": "[1]", "value": 1.15, "unit": "µM"}, {"measurement": "GI50", "setting": "[2]; [35]", "value": 1.23, "unit": "µM"}, {"measurement": "IC (TGI)", "setting": "[2]; read-out: Log10 TGI", "value": 18.2, "unit": "µM"}, {"measurement": "GI50", "setting": "[3]; [35]", "value": 2.04, "unit": "µM"}, {"measurement": "IC (TGI)", "setting": "[3]; [36]", "value": 51.3, "unit": "µM"}, {"measurement": "GI50", "setting": "[4]; U-251, read-out: Log10 GI50 (converted)", "value": 0.447, "unit": "µM"}, {"measurement": "CC50", "setting": "[4]; U-251, read-out: Log10 LC50 (converted)", "value": 42.7, "unit": "µM"}, {"measurement": "IC (TGI)", "setting": "[4]; U-251, read-out: Log10 TGI (converted)", "value": 16.2, "unit": "µM"}, {"measurement": "GI50", "setting": "[5]; CCRP-CEM, read-out: Log10 GI50 (converted)", "value": 0.562, "unit": "µM"}, {"measurement": "IC (TGI)", "setting": "[5]; [36]", "value": 53.7, "unit": "µM"}, {"measurement": "GI50", "setting": "[6]", "value": 17.4, "unit": "µM"}, {"measurement": "GI50", "setting": "[7]", "value": 871, "unit": "µM"}, {"measurement": "GI50", "setting": "[8]; [35]", "value": 1.02, "unit": "µM"}, {"measurement": "CC50", "setting": "[8]; [37]", "value": 38.9, "unit": "µM"}, {"measurement": "IC (TGI)", "setting": "[8]; read-out: Log10 TGI", "value": 12.6, "unit": "µM"}, {"measurement": "GI50", "setting": "[9]; [35]", "value": 0.251, "unit": "µM"}, {"measurement": "IC (TGI)", "setting": "[9]; [36]", "value": 46.8, "unit": "µM"}, {"measurement": "GI50", "setting": "[10]", "value": 0.525, "unit": "µM"}, {"measurement": "GI50", "setting": "[11]; [35]", "value": 7.59, "unit": "µM"}, {"measurement": "IC (TGI)", "setting": "[11]; [36]", "value": 77.6, "unit": "µM"}, {"measurement": "IC (TGI)", "setting": "[12]", "value": 26.9, "unit": "µM"}, {"measurement": "GI50", "setting": "[13]", "value": 2.95, "unit": "µM"}, {"measurement": "GI50", "setting": "[14]", "value": 14.8, "unit": "µM"}, {"measurement": "GI50", "setting": "[15]; [35]", "value": 0.195, "unit": "µM"}, {"measurement": "CC50", "setting": "[15]; [37]", "value": 42.7, "unit": "µM"}, {"measurement": "GI50", "setting": "[16]; [35]", "value": 11, "unit": "µM"}, {"measurement": "IC (TGI)", "setting": "[16]; [36]", "value": 37.2, "unit": "µM"}, {"measurement": "IC (TGI)", "setting": "[17]; 60 cell, mean over panel, read-out: Log10 TGI MG MID (converted)", "value": 41.7, "unit": "µM"}, {"measurement": "CC50", "setting": "[17]; Homo sapiens, 60 cell, mean over panel, read-out: Log10 LC50 MG MID (converted)", "value": 93.3, "unit": "µM"}, {"measurement": "potency compared with artemisinin", "setting": "[17]; Tables III, IV and V", "value": "more potent than artemisinin"}, {"measurement": "potency compared with paclitaxel", "setting": "[17]; Tables III, IV and V", "value": "in most instances are as potent and in some instances more potent than paclitaxel; also recorded: equivalent to and in many instances higher in potency than paclitaxel"}, {"measurement": "GI50", "setting": "[18]; [35]", "value": 1.1, "unit": "µM"}, {"measurement": "CC50", "setting": "[18]; [37]", "value": 25.1, "unit": "µM"}, {"measurement": "IC (TGI)", "setting": "[18]; [36]", "value": 5.01, "unit": "µM"}, {"measurement": "GI50", "setting": "[19]; [35]", "value": 0.427, "unit": "µM"}, {"measurement": "IC (TGI)", "setting": "[19]; [36]", "value": 13.8, "unit": "µM"}, {"measurement": "GI50", "setting": "[20]", "value": 28.2, "unit": "µM"}, {"measurement": "GI50", "setting": "[21]", "value": 5.75, "unit": "µM"}, {"measurement": "GI50", "setting": "[22]; [35]", "value": 0.813, "unit": "µM"}, {"measurement": "CC50", "setting": "[22]; [37]", "value": 55, "unit": "µM"}, {"measurement": "IC (TGI)", "setting": "[22]; [36]", "value": 19.1, "unit": "µM"}, {"measurement": "GI50", "setting": "[23]", "value": 12.9, "unit": "µM"}, {"measurement": "GI50", "setting": "[24]; [35]", "value": 0.339, "unit": "µM"}, {"measurement": "IC (TGI)", "setting": "[24]; [36]", "value": 51.3, "unit": "µM"}, {"measurement": "GI50", "setting": "[25]; [35]", "value": 0.302, "unit": "µM"}, {"measurement": "IC (TGI)", "setting": "[25]; [36]", "value": 47.9, "unit": "µM"}, {"measurement": "GI50", "setting": "[26]; [35]", "value": 6.03, "unit": "µM"}, {"measurement": "IC (TGI)", "setting": "[26]; [36]", "value": 30.9, "unit": "µM"}, {"measurement": "IC (TGI)", "setting": "[27]", "value": 56.2, "unit": "µM"}, {"measurement": "GI50", "setting": "[28]", "value": 14.5, "unit": "µM"}, {"measurement": "GI50", "setting": "[29]; [35]", "value": 0.398, "unit": "µM"}, {"measurement": "CC50", "setting": "[29]; [37]", "value": 63.1, "unit": "µM"}, {"measurement": "IC (TGI)", "setting": "[29]; [36]", "value": 15.5, "unit": "µM"}, {"measurement": "GI50", "setting": "[30]; MOLT-4, read-out: Log10 GI50 (converted)", "value": 0.427, "unit": "µM"}, {"measurement": "IC (TGI)", "setting": "[30]; MOLT-4, read-out: Log10 TGI", "value": 36.3, "unit": "µM"}, {"measurement": "GI50", "setting": "[30]; MOLT-4, read-out: concentration for primary growth inhibition", "value": "~0.1", "unit": "µM"}, {"measurement": "GI50", "setting": "[31]; [35]", "value": 0.631, "unit": "µM"}, {"measurement": "IC (TGI)", "setting": "[31]; [36]", "value": 25.1, "unit": "µM"}, {"measurement": "GI50", "setting": "[32]; [35]", "value": 2.95, "unit": "µM"}, {"measurement": "IC (TGI)", "setting": "[32]; [36]", "value": 89.1, "unit": "µM"}, {"measurement": "GI50", "setting": "[33]; [35]", "value": 0.759, "unit": "µM"}, {"measurement": "IC (TGI)", "setting": "[33]; [36]", "value": 30.9, "unit": "µM"}, {"measurement": "GI50", "setting": "[34]", "value": 0.407, "unit": "µM"}]}
